For data set [1], the system named is human immunodeficiency virus (HIV). The conditions noted are these: background statement; cited from earlier work.
The target in data set [2] is T1, adenosine deaminase (adenosine aminohydrolase, EC 3.5.4.4) (Bos taurus, UniProt P56658).
T1 sequence (P56658 1-363): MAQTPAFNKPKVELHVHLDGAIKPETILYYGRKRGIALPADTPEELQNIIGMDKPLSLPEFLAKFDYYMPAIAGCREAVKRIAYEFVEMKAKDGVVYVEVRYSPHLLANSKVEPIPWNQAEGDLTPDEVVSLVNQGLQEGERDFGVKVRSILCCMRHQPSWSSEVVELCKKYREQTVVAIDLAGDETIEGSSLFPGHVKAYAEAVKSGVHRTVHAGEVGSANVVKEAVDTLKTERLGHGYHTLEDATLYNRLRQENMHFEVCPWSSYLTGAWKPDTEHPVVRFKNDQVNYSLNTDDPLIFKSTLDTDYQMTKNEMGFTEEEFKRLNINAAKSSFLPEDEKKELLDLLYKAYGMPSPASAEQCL
The data set is described as follows: Enzymatic deamination by adenosine deaminase (HPLC). The conditions noted are these: for half-life at 50 µM: bovine, adenosine deaminase. How it is done:
FIG. 1. Deamination of dideoxyadenosine analogues by adenosine deaminase. Hydrolysis kinetics and 2'-F-dd-ara-I formation during the incubation of 50 μM N^6 -CH3 -2'-F-dd-ara-A (1f) with 0.7 units/mL of adenosine deaminase at 37° C. A unit of adenosine deaminase is the amount of enzyme which hydrolyzes a standard substrate (e.g., adenosine) at the rate of 1.0 μmole/min at 25° C. and pH 7.5. […] Insert: Adenosine deaminase hydrolysis kinetics for 50 μM ddA and 2'-F-dd-ara-A. The hydrolysis curve for ddA has been extrapolated from kinetics obtained with 0.07 units/mL of adenosine deaminase under identical conditions.
A 50 μl aliquot of a 10 mg/ml suspension of adenosine deaminase (adenosine aminohydrolase, EC 3.5.4.4) from calf intestinal mucosa was centrifuged at 600×g for 3 min. The residue remaining after removal of the (NH4)2 SO4 supernatant was dissolved in 0.5 ml pH 7.4 tris(hydroxymethyl)-aminomethane (Tris) buffer to give an enzyme solution of 1 mg/ml (274 units/ml). […] A pH 7.4 buffer was prepared by adjusting 0.01M Tris to pH 7.4 with 0.5N HCl, The 1.0 HCl , HPLC-grade acetonitrile, monobasic potassium phosphate, sodium hydroxide and ultrapure Tris were all commercially available and were used without further purification.
Enzymatic Deamination of Adenosine Analogues. […] A 50 μL aliquot of substrate solution was diluted with 0.95 ml 0.01M Tris buffer in a 1.5-mL Eppendorf tube and equilibrated at 37° C. in a Dubnoff metabolic shaking incubator. Reaction was initiated by addition of 2.5 μL of adenosine deaminase solution (0.7 unit). At specified time intervals, a 50 μL aliquot of the reaction mixture was withdrawn and quenched by mixing with 0.45 mL cold 2 μM 2'-deoxycoformycin. This diluted sample was ultrafiltered to remove enzyme in a Centrifree Micropartition unit by centrifugation at 600×g at 4° C. in a high speed refrigerated centrifuge. The decrease in substrate concentration was monitored by HPLC analysis of the resultant ultrafiltrate (see below). The ability of 2'-deoxycoformycin to inhibit deamination under the above conditions was evaluated by adding 2 μL of 1.0 mM inhibitor to diluted substrate solutions at the time of equilibration. Reaction, sampling and analysis were carried out as above. […] Initial hydrolysis rates for each substrate concentration were measured through linear least-squares curve fitting of the concentration versus time data for reaction of the first 10% of substrate. KM and vmax values for each substrate were then determined from a graphical lineweaver-Burke plot of these initial rates (FIG. 1).
HPLC Analysis of Dideoxypurine Nucleosides.
Concentrations of dideoxynucleosides were measured by the HPLC analysis of 100 μL aliquots of ultrafiltered samples. A 4.6×250 mm 5-μm Ultrasphere-ODS column, protected by a Waters guard column packed with 37-50 μm Vydac 201SC, was eluted with 10-20% CH3 CN in 0.01M pH 7.0 phosphate buffer at a flow rate of 1.0 mL/min. Dideoxynucleosides and deamination products were detected at the appropriate wavelength of maximum absorption with a Gilson 116 variable wavelength detector. Peak identity was determined from coincidence of retention times with standards and by comparison of on-the-fly UV spectra obtained with a Perkin-Elmer LC-235 diode array detector. Peak areas and peak heights were measured simultaneously on a Spectra-Physics SP4200 computing integrator.

A short description of data set [3]: Octanol-water partition coefficient, microscale shake-flask. The conditions noted are these: octanol/ph 7.0 buffer. How it is done:
Measurement of Octanol-Water Partition Coefficients.
n-Octanol-water partition coefficients (P) were determined by a microscale shake-flask procedure, (Ford, H. et al Abstracts of Papers, 200th National Meeting of the American Chemical Society, Washington, D.C.; American Chemical Society: Washington, D.C., 1990; CARB 13) which was modification of an earlier method (Nahum, A. & Horvath, C. J. Chromatogr. 1980, 192, 315). A 20 μL aliquot of a 0.5 mg/mL DMSO solution of the dideoxynucleoside was dissolved in 1.0 mL of octanol-saturated, pH 7.0, 0.01M potassium phosphate buffer. This was mixed thoroughly with 1.0 ml of buffer-saturated n-octanol in a 2-mL Mixxor apparatus at 24°-26° C. and then allowed to stand for 15 min. The phases were separated, centrifuged at 600×g for 5 min, and the relative concentration of sample in each phase determined by HPLC analysis of a 50 μl aliquot. The partition coefficient was calculated by dividing the absolute area of the appropriate integrated peak from the octanol phase by that of the buffer phase (Table I).
Octanol/pH 7.0 buffer partition coefficients were determined using a newly developed microscale method. […] The addition of a methyl group normally increases the log P value of a compound by about 0.5.

A short description of data set [4]: Toxicity on ATH8 target cells (% toxicity, dye exclusion). The class given is cell-based. The conditions noted are these: human, ath8 cells, 10 μM. How it is done: (§1) HIV Cytopathic Effect Inhibition Assay.
(§2) The HIV cytopathic effect inhibition assay was performed as previously described. […] On day 8 in culture, the viable cells were counted by using the dye exclusion method. All compounds, including inactives, were evaluated a minimum of two times in separate experiments. Data reported in Table II are from representative tests. The % protection against the virus was determined by the following formula: 100 times [(the number of viable cells exposed to HIV-1 and cultured in the presence of the compound minus the number of viable cells exposed to HIV-1 and cultured in the absence of compound) divided by (the number of viable cells cultured alone minus the number of viable cells exposed to HIV-1 and cultured in the absence of the compound)]. The % toxicity of a compound on the target cells was determined by the following formula: 100 times [1 minus (the number of total viable cells cultured in the presence of the compound divided by the number of total viable cells cultured alone)]. Calculated percentages equal to or less than zero are expressed as 0%.

Data set [5] concerns CD4^+ ATH8 cells. The data set is described as above. The class given is cell-based. How it is done: as §1, §2
Data set [6] relates to HIV-1/IIIB (CD4^+ ATH8 cells). The data set is described as follows: HIV cytopathic effect inhibition assay in ATH8 cells (% protection). The class given is cell-based. How it is done:
as §1
The HIV cytopathic effect inhibition assay was performed as previously described. (Mitsuya, H. & Broder, S. Proc. Nat. Acad. Sci. USA 1986, 83, 1911) Briefly, 200,000 target CD4^+ ATH8 cells were exposed to cell-free HIV-1/IIIB at a dose of 43 (or 1087 for compound 1g) TCID50 (50% tissue culture infectious dose) for 1 h, resuspended in 2 ml of fresh culture media containing interleukin 2, and cultured at 37° C. with or without test compounds in 5% CO2 -containing humidified air. On day 8 in culture, the viable cells were counted by using the dye exclusion method. All compounds, including inactives, were evaluated a minimum of two times in separate experiments. Data reported in Table II are from representative tests. The % protection against the virus was determined by the following formula: 100 times [(the number of viable cells exposed to HIV-1 and cultured in the presence of the compound minus the number of viable cells exposed to HIV-1 and cultured in the absence of compound) divided by (the number of viable cells cultured alone minus the number of viable cells exposed to HIV-1 and cultured in the absence of the compound)]. The % toxicity of a compound on the target cells was determined by the following formula: 100 times [1 minus (the number of total viable cells cultured in the presence of the compound divided by the number of total viable cells cultured alone)]. Calculated percentages equal to or less than zero are expressed as 0%.
^a ATH8 cells were exposed to HIV1/IIIB per cell for 1 hr and
cultured in the presence of various concentrations of each compound. On
day 8, the total viable cells were counted. Orders of numbers in the
column for concentrations correspond to the orders of numbers in other
Background: Damage to the host cells serves as the signal in cytopathic effect assays.

The conditions of data set [7]: in vivo; cited from earlier work.
Data set [8] deals with ADA. The conditions noted are these: vs ddA, determined previously, slightly different conditions; cited from earlier work.

Where two headings read alike, the source gives them in different places.

The source of these data is patent US5459256A, “Lipophilic, aminohydrolase-activated prodrugs” (priority 1991, dated 1995).

Regarding antimoniotungstate, the “HIV replication in presence of compound (in words)” value in data set [1] is on record as “HIV replication is considerably slower”.

As usually defined, the logD is the decadic logarithm of the distribution of all forms, ionised or not, between an organic phase and buffer at a given pH. Higher therefore signals higher lipophilicity. For the compound `O=c1[nH]cnc2c1ncn2[C@@H]1O[C@H](CO)C[C@@H]1F` [Compound 1b, 2', 3'-dideoxy-2'-fluoroarabinosylhypoxanthine, reference compound], in data set [1], the “in vitro activity against HIV (in words)” value is “known active inosine analogue”. Further, the “deamination product / product formation (in words)” value in data set [2] (0.7 U/mL ADA, 37° C.) is listed as “the rate of formation of 1b corresponded to the rate of disappearance of 1f”. Also, the pH-dependent lipophilicity (logD) in data set [3] (pH 7) is -1.21 ± 0.02.

The half-life is how long it takes for the measured level to halve. Lower therefore signals rapid decline. What is called inhibition is the change of the read-out against control, counted positive when it falls. A lower inhibition goes with a weak effect. For the compound `Nc1ncnc2c1ncn2[C@H]1CC[C@@H](CO)O1` [ddA, dideoxyadenosine, reference compound], the cytotoxicity at 192 h, 10 µM stood at 22% in data set [4] (with dCF (5 μm)) and 0% in data set [4] (without dCF). The “toxicity in the presence of dCF (in words)” value in data set [5] (ATH8 cells, dCF added) is on record as “appeared to be potentiated”. For the same compound, the “t1/2 of hydrolysis by adenosine deaminase” value in data set [2] (50 μM, extrapolated from 0.07 units/mL ADA to 0.7 units/mL, 37° C.) was 0.083 min. The compound further had a half-life at 50 µM in data set [2] of 0.0833 min. In addition, the logD in data set [3] (pH 7, Log P) is -0.29 ± 0.01. The “% Protection” value in data set [6] (10 μM, with dCF (5 μm), 11520 min) stood at 86%. The compound also returned an inhibition at 10 µM in data set [6] (Human immunodeficiency virus 1, IIIB, ATH-8, 192 h, 10 μM, without dCF) of 100%.

For `Nc1ccn([C@H]2CC[C@@H](CO)O2)c(=O)n1` [ddC, dideoxycytidine, reference compound], the “CNS entry (in words)” value in data set [7] is reported as “failure of ddC to achieve significant CNS levels”. Further, the logD in data set [3] (pH 7, Log P) is -1.33 ± 0.01.

For the compound `Cc1ccc(C(=O)Nc2ccc(S(=O)(=O)O)c3cc(S(=O)(=O)O)cc(S(=O)(=O)O)c23)cc1NC(=O)c1cccc(NC(=O)Nc2cccc(C(=O)Nc3cc(C(=O)Nc4ccc(S(=O)(=O)O)c5cc(S(=O)(=O)O)cc(S(=O)(=O)O)c45)ccc3C)c2)c1` [suramin], the “HIV replication in presence of compound (in words)” value in data set [1] is “HIV replication is considerably slower”.

Consider `Nc1ncnc2c1ncn2[C@@H]1O[C@H](CO)C[C@@H]1F` [Compound 1a, 2', 3'-dideoxy-2'-fluoroarabinosyladenine, reference compound], for which the “hydrolysis by ADA, times slower than ddA” value is “ca. 10 times slower” in data set [8] and 17 times slower in data set [2] (vs ddA, 50 μM substrate). Further, in data set [5], the “toxicity in the presence of dCF (in words)” value is reported as “appeared to be potentiated”. For the same compound, the “% Toxicity” value in data set [5] (human, 11520 min) was determined as 11%. The half-life at 50 µM in data set [2] and in data set [2] (t1/2 of hydrolysis by adenosine deaminase) was 1.33 min in each case. For the same compound, the vmax in data set [2] (pH 7.4 and 37° C.) is 2.3 × 10^-1 μmol/min/U. In data set [6] (ATH8 cells, ADA (0.7 U/mL) added), the “anti-HIV activity with supplementary ADA (in words)” value is on record as “did not change its activity”. Further, the “anti-HIV activity in the presence of dCF (in words)” value in data set [6] (ATH8 cells, dCF added) is on record as “no important changes in the protection”.
